Results as given in US8222285B2, “1,3-dihydroxy substituted phenylamide glucokinase activators” (Bristol-Myers Squibb Company, priority 2007, dated 2012).
Read-outs that look alike come from different tables or passages of the source.

Tests used:
human glucokinase (GK) = molecular target: T1, human glucokinase (GK) (Homo sapiens, UniProt P35557); assay: Glucokinase tandem enzymatic assay; format: biochemical; settings: for EC50: full-length human GK 15 nM; for Emax: read-out: Maximal activation (%) Human Glucokinase @ 12 mM Glucose
T1 construct: Full-length human hepatic GK (untagged) was expressed in BL21 STAR (DE3)pLysS cells; made in house; host or cells: E. coli BL21 STAR (DE3)pLysS
T1 sequence (P35557 1-466 isoform P35557-2): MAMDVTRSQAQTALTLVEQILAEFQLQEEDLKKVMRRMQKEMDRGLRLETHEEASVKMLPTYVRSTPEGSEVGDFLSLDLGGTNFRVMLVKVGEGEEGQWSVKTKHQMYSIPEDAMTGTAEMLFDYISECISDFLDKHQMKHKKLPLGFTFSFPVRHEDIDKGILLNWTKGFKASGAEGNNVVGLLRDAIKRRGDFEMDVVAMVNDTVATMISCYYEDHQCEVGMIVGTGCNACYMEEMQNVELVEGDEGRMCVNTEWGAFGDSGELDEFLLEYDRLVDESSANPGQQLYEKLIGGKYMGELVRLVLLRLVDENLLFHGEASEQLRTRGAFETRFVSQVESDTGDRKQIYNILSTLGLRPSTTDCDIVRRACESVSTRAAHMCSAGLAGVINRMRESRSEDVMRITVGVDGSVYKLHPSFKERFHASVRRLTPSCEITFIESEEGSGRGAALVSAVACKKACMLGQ
Description: Glucokinase Tandem Enzymatic Assay
Enzymatic activity of human glucokinase (GK) was measured by incubating GK, ATP, and glucose for discrete time periods followed by quenching with EDTA (ethylenediamine tetra-acetic acid). Relative amounts of product glucose-6-phosphate (G6P) were measured by then running a detection assay using G6P dehydrogenase and measuring the conversion of ThioNAD (thio-nicotinamide adenine dinucleotide) to ThioNADH (thio-dihydronicotinamide adenine dinucleotide) at a wavelength of 405 nm. This ‘uncoupled’ enzymatic reaction is denoted as the GK ‘tandem’ assay. Activation of GK by compounds can be assessed using this assay. The GK tandem assay protocol described below was followed using a range of activator compound concentrations from 0 to 100 μM at 5 and 12 mM of glucose. Human full-length glucokinase (GK, 15 nM) was incubated with 5 or 12 mM glucose in a 384 well black microtiter plate with a clear bottom. To initiate the GK reaction, magnesium-ATP (3 mM final concentration) was added to GK in buffer (final buffer conditions of 25 mM HEPES buffer, pH 7.1, containing 1 mM dithiothreitol and 5% DMSO). The total reaction volume was 20 μL. The reaction was allowed to proceed for ten minutes and was then quenched with 5 μL EDTA; 45 mM final). The components of the detection reaction, ThioNAD and G6PDH (glucose-6-phosphate dehydrogenase) (final concentrations of 650 μM and 3.33 Units, respectively), were then added together in a volume of 25 μL, (to give a total volume of 50 μL). Absorbance measurements were made at 405 nm on a Spectramax Plus 384 absorbance plate reader (Molecular Devices). Absorbance was read, background glucose-6-phosphate levels were subtracted, after which activation was calculated as a percentage of control activity. Control activity was determined using GK in the presence of vehicle (DMSO), with background glucose-6-phosphate subtracted. Background glucose-6-phosphate was determined by pre-quenching GK with EDTA prior to reaction initiation with ATP.
Expression and Purification of Human GK
Full-length human hepatic GK (untagged) was expressed in BL21 STAR (DE3)pLysS cells (Invitrogen) at 25° C. as described by Mookhtiar et al. (1). The protein was purified essentially as described by Lange (2) with a slight modification. Briefly, cell pellets were lysed via three rounds of freezing and thawing, centrifuged at 15000 g for clarification, and precipitated with 40-65% (NH4)2SO4. The resulting pellet was resuspended in buffer, dialyzed, and applied directly to a Q-Sepharose (Sigma) column followed by elution with a linear 100-600 mM KCl gradient. GK containing fractions were pooled, dialyzed overnight vs. 25 mM Hepes pH 7.2/1 mM MgCl2/1 mM EDTA/0.1 M KCl/1 mM DTT, then dialyzed again with same buffer with 10% glycerol added.

[1] = tested on: male DIO (diet-induced obese) C57BL/6J mice; assay: Oral glucose tolerance test (OGTT) in DIO mice; format: in vivo; settings: 30 mg/kg oral, 60 min before 2 g/kg oral glucose; ΔAUC 0-120 min; DIO C57BL/6J mice
Description: In Vivo Studies: Oral Glucose Tolerance Test (OGTT)
Oral glucose tolerance tests were carried out on male DIO (diet-induced obese) C57BL/6J mice fed a high fat diet (60% kcal from fat) for 26 weeks prior to experimentation. Mice were fasted overnight before use for experiments. A test compound or vehicle (10% dimethyl acetamide+10% ethanol+10% Cremophore+70% water) was given orally 60 min before oral administration of a glucose solution at a dose of 2 g/kg body weight (oral glucose tolerance test; OGTT). Blood glucose levels were measured from tail-bled samples taken at different time points before and after administration of glucose (time course of 2 hours). A time curve of the blood glucose was generated and the change from baseline area-under-the curve (ΔAUC) from 0-120 min was calculated (the time glucose administration being time zero).

[2] = 12 mM glucose, expressed as % of basal activation, EC50 could not be calculated

| Compound | EC50 (human glucokinase (GK); 12 mM glucose) [nM] | also measured |
| --- | --- | --- |
| CC(C)Oc1cc(OC(C)C)cc(C(=O)Nc2ncc(Oc3cccc(C(=O)O)c3)s2)c1 [Example 11] | 171 |  |
| COC[C@H](C)Oc1cc(O[C@@H](C)Cc2ccccc2)cc(C(=O)Nc2ncc(Oc3cccc(C(=O)O)c3)s2)c1 [Example 32] |  | Emax (human glucokinase (GK); [2]): 118% |
| COC[C@H](C)Oc1cc(Oc2ccc(S(C)(=O)=O)cc2)cc(C(=O)Nc2ncc(Oc3cccc(C(=O)N4CC(O)C4)c3)s2)c1 [Example 34] | 16 |  |
| CNC(=O)Oc1cccc(Oc2cnc(NC(=O)c3cc(Oc4ccc(S(C)(=O)=O)cc4)cc(O[C@@H](C)COC)c3)s2)c1 [Example 38] |  | Emax (human glucokinase (GK)): 144% |
| CS(=O)(=O)c1ccc(Oc2cc(Oc3ccnc(Cl)c3)cc(C(=O)Nc3ncc(Oc4cccc(C(=O)O)c4)s3)c2)cc1 [Example 42] | 170 |  |
| CC(C)Oc1cc(Oc2ccc(C(=O)N3CCC3)nc2)cc(C(=O)Nc2ncc(Oc3cccc(C(=O)O)c3)s2)c1 [Example 46] |  | Emax (human glucokinase (GK); [2]): 124% |

Second part, led by results:

| EC50 (human glucokinase (GK); 12 mM glucose) [nM] | Compound | also measured |
| --- | --- | --- |
| 13 | COC[C@H](C)Oc1cc(Oc2ccc(S(C)(=O)=O)cc2)cc(C(=O)Nc2ncc(Oc3cccc(C(N)=O)c3)s2)c1 [Example 3] |  |
| 47 | COC[C@H](C)Oc1cc(Oc2ccc(S(C)(=O)=O)cc2)cc(C(=O)Nc2ncc(Oc3cccc(C(=O)O)c3)s2)c1 [Example 4] | Reduction in Glucose AUC at 30 mg/kg dose [1]: 37% |
| 179 | CC(C)Oc1cc(OC(C)C)cc(C(=O)Nc2ncc(Oc3ccc(F)nc3)s2)c1 [Example 17] |  |
| 6 | COC[C@H](C)Oc1cc(Oc2ccc(S(C)(=O)=O)cc2)cc(C(=O)Nc2ncc(Oc3cccc(C(=O)N4CCC4)c3)s2)c1 [Example 33] |  |
| 34 | CC(C)Oc1cc(Oc2ccc(S(C)(=O)=O)nc2)cc(C(=O)Nc2ncc(Oc3cccc(C(=O)O)c3)s2)c1 [Example 45] |  |
